Measurements from US20120324604A1, “PESTICIDAL MIXTURES CONTAINING ISOXAZOLINE DERIVATIVES AND A FUNGICIDE” (priority 2010, published 2012).

Columns and labels:
Type in all cases: cell-based
Fusarium culmorum = Fusarium culmorum (Root Rot) growth inhibition, microtiter plate, photometric; conditions: alone
Experimental: Fusarium culmorum (Root Rot):
(§1) Conidia of the fungus from cryogenic storage were directly mixed into nutrient broth (potato dextrose broth). After placing a (DMSO) solution of the test compounds into a microtiter plate (96-well format) the nutrient broth containing the fungal spores was added.

Rhizoctonia solani = Rhizoctonia solani (Foot Rot, Damping-Off) growth inhibition, microtiter plate, photometric
Experimental: Rhizoctonia solani (Foot Rot, Damping-Off):
Mycelial fragments of the fungus from cryogenic storage were directly mixed into nutrient broth (potato dextrose broth). After placing a (DMSO) solution of the test compounds into a microtiter plate (96-well format) the nutrient broth containing the fungal spores was added.

[1] = test system: Glomerella lagenarium (syn. Colletotrichum lagenarium); test: Glomerella lagenarium (Anthracnose of Cucurbits) growth inhibition, microtiter plate, photometric; conditions: alone
Experimental: Glomerella lagenarium (syn. Colletotrichum lagenarium), Anthracnose of Cucurbits:
as §1

Gaeumannomyces graminis = Gaeumannomyces graminis growth inhibition, microtiter plate, photometric
Experimental: Mycelial fragments of the fungus from cryogenic storage were directly mixed into nutrient broth (potato dextrose broth). After placing a (DMSO) solution of the test compounds into a microliter plate (96-well format) the nutrient broth containing the fungal spores was added.

[2] = test system: Mycosphaerella arachidis (syn. Cercospora arachidicola); test: Mycosphaerella arachidis (Brown Leaf Spot of Groundnut) growth inhibition, microtiter plate, photometric; conditions: alone
Experimental: Mycosphaerella arachidis (syn. Cercospora arachidicola), Brown Leaf Spot of Groundnut (Peanut):
as §1

Septoria tritici = Septoria tritici (Leaf Blotch) growth inhibition, microtiter plate, photometric; conditions: for AVERAGE DEAD IN % A1: A1 alone; for AVERAGE DEAD IN %: alone
Experimental: Septoria tritici (Leaf Blotch):
as §1

Pythium ultimum = Pythium ultimum (Damping Off) growth inhibition, microtiter plate, photometric
Experimental: Pythium ultimum (Damping Off):
Mycelial fragments of the fungus, prepared from a fresh liquid culture, were directly mixed into nutrient broth (potato dextrose broth). After placing a (DMSO) solution of the test compounds into a microtiter plate (96-well format) the nutrient broth containing the fungal spores was added.

[3] = applied alone, 0.0390625 ppm AI
[4] = single compound at 0.0390625 ppm AI
[5] = single compound at 0.078125 ppm AI
[6] = single compound at 0.15625 ppm AI
[7] = single compound at 0.3125 ppm AI
[8] = single compound at 0.625 ppm AI

Cc1cc(C2=NOC(c3cc(Cl)cc(Cl)c3)(C(F)(F)F)C2)ccc1C(=O)NC1(C)CSC1 (racemic) [A1]
0%: AVERAGE DEAD IN % (Fusarium culmorum; 0.625 PPM AI) | AVERAGE DEAD IN % (Fusarium culmorum; 1.25 PPM AI) | AVERAGE DEAD IN % (Fusarium culmorum; 2.5 PPM AI) | AVERAGE DEAD IN % (Fusarium culmorum; 5 PPM AI) | AVERAGE DEAD IN % (Fusarium culmorum; 10 PPM AI) | AVERAGE DEAD IN % (Fusarium culmorum; 20 PPM AI) | AVERAGE DEAD IN % (Rhizoctonia solani; [3]) | AVERAGE DEAD IN % (Rhizoctonia solani; applied alone, 0.078125 ppm AI) | AVERAGE DEAD IN % (Rhizoctonia solani; applied alone, 0.15625 ppm AI) | AVERAGE DEAD IN % (Rhizoctonia solani; applied alone, 0.3125 ppm AI) | AVERAGE DEAD IN % (Rhizoctonia solani; applied alone, 0.625 ppm AI) | AVERAGE DEAD IN % (Rhizoctonia solani; applied alone, 1.25 ppm AI) | AVERAGE DEAD IN % (Rhizoctonia solani; applied alone, 2.5 ppm AI) | AVERAGE DEAD IN % (Rhizoctonia solani; applied alone, 5 ppm AI) | AVERAGE DEAD IN % (Rhizoctonia solani; applied alone, 10 ppm AI) | AVERAGE DEAD IN % (Rhizoctonia solani; applied alone, 20 ppm AI) | AVERAGE DEAD IN % (Rhizoctonia solani; [4]) | AVERAGE DEAD IN % (Rhizoctonia solani; [5]) | AVERAGE DEAD IN % (Rhizoctonia solani; [6]) | AVERAGE DEAD IN % (Rhizoctonia solani; [7]) | AVERAGE DEAD IN % (Rhizoctonia solani; [8]) | AVERAGE DEAD IN % (Rhizoctonia solani; single compound at 1.25 ppm AI) | AVERAGE DEAD IN % (Rhizoctonia solani; single compound at 2.5 ppm AI) | AVERAGE DEAD IN % (Rhizoctonia solani; single compound at 5 ppm AI) | AVERAGE DEAD IN % (Rhizoctonia solani; single compound at 10 ppm AI) | AVERAGE DEAD IN % (Rhizoctonia solani; single compound at 20 ppm AI) | AVERAGE DEAD IN % ([1]; 0.0390625 ppm AI) | AVERAGE DEAD IN % ([1]; 0.078125 ppm AI) | AVERAGE DEAD IN % ([1]; 0.15625 ppm AI) | AVERAGE DEAD IN % ([1]; 0.3125 ppm AI) | AVERAGE DEAD IN % ([1]; 0.625 ppm AI) | AVERAGE DEAD IN % ([1]; 1.25 ppm AI) | AVERAGE DEAD IN % ([1]; 2.5 ppm AI) | AVERAGE DEAD IN % ([1]; 5 ppm AI) | AVERAGE DEAD IN % ([1]; 10 ppm AI) | AVERAGE DEAD IN % ([1]; 20 ppm AI) | AVERAGE DEAD IN % (Gaeumannomyces graminis; [3]) | AVERAGE DEAD IN % (Gaeumannomyces graminis; applied alone, 0.078125 ppm AI) | AVERAGE DEAD IN % (Gaeumannomyces graminis; applied alone, 0.15625 ppm AI) | AVERAGE DEAD IN % (Gaeumannomyces graminis; applied alone, 0.3125 ppm AI) | AVERAGE DEAD IN % (Gaeumannomyces graminis; applied alone, 0.625 ppm AI) | AVERAGE DEAD IN % (Gaeumannomyces graminis; applied alone, 1.25 ppm AI) | AVERAGE DEAD IN % (Gaeumannomyces graminis; applied alone, 2.5 ppm AI) | AVERAGE DEAD IN % (Gaeumannomyces graminis; applied alone, 5 ppm AI) | AVERAGE DEAD IN % (Gaeumannomyces graminis; applied alone, 10 ppm AI) | AVERAGE DEAD IN % (Gaeumannomyces graminis; applied alone, 20 ppm AI) | AVERAGE DEAD IN % (Gaeumannomyces graminis; [4]) | AVERAGE DEAD IN % (Gaeumannomyces graminis; [5]) | AVERAGE DEAD IN % (Gaeumannomyces graminis; [6]) | AVERAGE DEAD IN % (Gaeumannomyces graminis; [7]) | AVERAGE DEAD IN % (Gaeumannomyces graminis; [8]) | AVERAGE DEAD IN % (Gaeumannomyces graminis; single compound at 1.25 ppm AI) | AVERAGE DEAD IN % (Gaeumannomyces graminis; single compound at 2.5 ppm AI) | AVERAGE DEAD IN % (Gaeumannomyces graminis; single compound at 5 ppm AI) | AVERAGE DEAD IN % (Gaeumannomyces graminis; single compound at 10 ppm AI) | AVERAGE DEAD IN % (Gaeumannomyces graminis; single compound at 20 ppm AI) | AVERAGE DEAD IN % ([2]; 0.0390625 ppm AI) | AVERAGE DEAD IN % ([2]; 0.078125 ppm AI) | AVERAGE DEAD IN % ([2]; 0.15625 ppm AI) | AVERAGE DEAD IN % ([2]; 0.3125 ppm AI) | AVERAGE DEAD IN % ([2]; 0.625 ppm AI) | AVERAGE DEAD IN % ([2]; 1.25 ppm AI) | AVERAGE DEAD IN % ([2]; 2.5 ppm AI) | AVERAGE DEAD IN % ([2]; 5 ppm AI) | AVERAGE DEAD IN % ([2]; 10 ppm AI) | AVERAGE DEAD IN % A1 (Septoria tritici; 0.0390625 ppm AI) | AVERAGE DEAD IN % A1 (Septoria tritici; 0.078125 ppm AI) | AVERAGE DEAD IN % A1 (Septoria tritici; 0.15625 ppm AI) | AVERAGE DEAD IN % A1 (Septoria tritici; 0.3125 ppm AI) | AVERAGE DEAD IN % A1 (Septoria tritici; 0.625 ppm AI) | AVERAGE DEAD IN % A1 (Septoria tritici; 1.25 ppm AI) | AVERAGE DEAD IN % A1 (Septoria tritici; 2.5 ppm AI) | AVERAGE DEAD IN % A1 (Septoria tritici; 5 ppm AI) | AVERAGE DEAD IN % A1 (Septoria tritici; 10 ppm AI) | AVERAGE DEAD IN % A1 (Septoria tritici; 20 ppm AI) | AVERAGE DEAD IN % (Septoria tritici; 0.0390625 ppm AI) | AVERAGE DEAD IN % (Septoria tritici; 0.078125 ppm AI) | AVERAGE DEAD IN % (Septoria tritici; 0.15625 ppm AI) | AVERAGE DEAD IN % (Septoria tritici; 0.3125 ppm AI) | AVERAGE DEAD IN % (Septoria tritici; 0.625 ppm AI) | AVERAGE DEAD IN % (Septoria tritici; 1.25 ppm AI) | AVERAGE DEAD IN % (Septoria tritici; 2.5 ppm AI) | AVERAGE DEAD IN % (Septoria tritici; 5 ppm AI) | AVERAGE DEAD IN % (Septoria tritici; 10 ppm AI) | AVERAGE DEAD IN % (Septoria tritici; 20 ppm AI) | AVERAGE DEAD IN % (Pythium ultimum; [4]) | AVERAGE DEAD IN % (Pythium ultimum; [5]) | AVERAGE DEAD IN % (Pythium ultimum; [6]) | AVERAGE DEAD IN % (Pythium ultimum; [7]) | AVERAGE DEAD IN % (Pythium ultimum; [8]) | AVERAGE DEAD IN % (Pythium ultimum; single compound at 1.25 ppm AI) | AVERAGE DEAD IN % (Pythium ultimum; single compound at 2.5 ppm AI) | AVERAGE DEAD IN % (Pythium ultimum; single compound at 5 ppm AI) | AVERAGE DEAD IN % (Pythium ultimum; single compound at 10 ppm AI) | AVERAGE DEAD IN % (Pythium ultimum; single compound at 20 ppm AI)
